Patent US5994336A, “Method of inhibiting proliferation of cells by administering an aminosterol compound” (priority 1995, dated 1999)

Key:
[1] = system: human foreskin fibroblasts; assay: Growth inhibition in vitro (absorbance at 600 nm); format: cell-based; conditions: 10 μg/ml; FIG. 3C
[2] = system: human coronary artery smooth muscle; assay: Proliferation of human coronary artery smooth muscle in vitro; format: cell-based; conditions: FIG. 15
Source text: Aminosterols of the invention may also have utility in inhibiting the growth factor mediated proliferation of smooth muscle within the artery. Following coronary angioplasty, reocclusion commonly occurs, secondary to reparative proliferation of the vascular smooth muscle within the wall of the surgically manipulated blood vessel. This process generally takes place over the course of 7-10 days. To evaluate whether an agent could prevent the growth factor mediated proliferation of smooth muscle within the artery, compound 1436 was evaluated in vitro for its effect on the proliferation of human coronary artery smooth muscle. Results for compound 1436 are shown in FIG. 13, and those for squalamine are shown in FIG. 14, with FIG. 15 being a composite logarithmic plot.

[3] = system: capillaries of the chorioallantoic membrane; assay: Inhibition of capillary growth in chorioallantoic membrane (CAM) model; format: in vivo, chick
Source text: The growing capillaries within the chorioallantoic membrane model (CAM model) have been used as a system in which to evaluate the effect of agents on their potential to inhibit new vessel growth. Neovascularization occurs most aggressively over the first week of embryonic development. Thereafter capillary growth is characterized by principally "elongation" rather than "de novo" formation.
In the standard assay, agents are applied locally to a region of the embryo over which neovascularization will occur. Agents are assessed by their ability to inhibit this process, as evaluated by visual examination about 7 days after application. […] The assay utilized is described in detail in Auerbach et al., Pharm. Ther. 51, 1991, 1-11.

[4] = system: VX2 carcinoma-induced corneal neovascularization; assay: Suppression of tumor-induced corneal neovascularization in rabbits; format: in vivo, rabbit; conditions: ELVAX 40 P pellet, day 21
Source text: The implantation of VX2 carcinoma into the rabbit cornea results in the induction of new blood vessels within several days (Tamargo et al., Cancer Research 51, 1991, 672-675). It is believed that this carcinoma secretes growth factors that stimulate new blood-vessel growth. Thus, this model is indicative in vivo evidence of therapeutic utility in the treatment of pathological disorders of vascularization, including the metastatic spread of tumors, diabetic retinopathy, macular degeneration, and rheumatoid arthritis.
This experiment followed the published protocol--tumor was implanted adjacent to a polymer containing a concentration of the agent to be evaluated. The polymer releases the agent slowly in the immediate neighborhood of the tumor, providing sustained high local concentrations of the agent. In this experiment, squalamine introduced into a pellet of ELVAX 40 P (DuPont, Wilmington, Del.) inhibited new blood vessel formation by about 60% at days 7 and 14, and by about 25% at day 21.

CC(C)[C@@H](CC[C@@H](C)[C@H]1CC[C@H]2[C@@H]3[C@H](O)C[C@H]4C[C@@H](NCCCNCCCCN)CC[C@]4(C)[C@H]3CC[C@]12C)OS(=O)(=O)O [squalamine]
growth of fibroblast line [1]: no effect | suppression of growth in vitro [2]: suppress in vitro the growth of human coronary artery smooth muscle | inhibition of CAM vessel neovascularization ([3]; 3-day CAM, 0.65 μg): inhibition of CAM vessel neovascularization | vascular irritation ([3]; 3-day embryo, 20 and 40 μg (values marked *)): Some vascular irritation noted | Percentage positive (positive/total) ([3]; 13-day embryo, 5.0 μg applied): 0/26 | inhibition of CAM capillary growth ([3]; 13-day old chick, ten times 0.65 μg): no inhibitory effect | inhibition of new blood vessel formation [4]: about 25%
